In patent publication US12351855B2, “Bioelectronic circuits, systems and methods for preparing and using them” (priority 2019, dated 2025):
Non-standard residues stand in square brackets, D forms with d.

What was measured:
IgG Anti-Ebola = format: binding
αVβ3 Integrin = αVβ3 Integrin (Homo sapiens, UniProt P05106+P06756); details: Table 1 adapted from Zhang et al.; not among the SPR-measured affinities; cited from earlier work
IgE Anti-DNP = format: binding, mouse
IgG Anti-HIV = format: binding
DNA template = experiment: Rolling-circle amplification of a DNA template, DNA gel of polymerization product; format: biochemical; details: polymerase bound by two streptavidin molecules; versus native enzyme with exonuclease activity deleted
Experimental: To confirm that the modified polymerase was still active, rolling-circle amplification of a DNA template was carried out with the molecule 35 as bound by two streptavidin molecules.

Sequence of αVβ3 Integrin (P06756 31-889 limits assumed): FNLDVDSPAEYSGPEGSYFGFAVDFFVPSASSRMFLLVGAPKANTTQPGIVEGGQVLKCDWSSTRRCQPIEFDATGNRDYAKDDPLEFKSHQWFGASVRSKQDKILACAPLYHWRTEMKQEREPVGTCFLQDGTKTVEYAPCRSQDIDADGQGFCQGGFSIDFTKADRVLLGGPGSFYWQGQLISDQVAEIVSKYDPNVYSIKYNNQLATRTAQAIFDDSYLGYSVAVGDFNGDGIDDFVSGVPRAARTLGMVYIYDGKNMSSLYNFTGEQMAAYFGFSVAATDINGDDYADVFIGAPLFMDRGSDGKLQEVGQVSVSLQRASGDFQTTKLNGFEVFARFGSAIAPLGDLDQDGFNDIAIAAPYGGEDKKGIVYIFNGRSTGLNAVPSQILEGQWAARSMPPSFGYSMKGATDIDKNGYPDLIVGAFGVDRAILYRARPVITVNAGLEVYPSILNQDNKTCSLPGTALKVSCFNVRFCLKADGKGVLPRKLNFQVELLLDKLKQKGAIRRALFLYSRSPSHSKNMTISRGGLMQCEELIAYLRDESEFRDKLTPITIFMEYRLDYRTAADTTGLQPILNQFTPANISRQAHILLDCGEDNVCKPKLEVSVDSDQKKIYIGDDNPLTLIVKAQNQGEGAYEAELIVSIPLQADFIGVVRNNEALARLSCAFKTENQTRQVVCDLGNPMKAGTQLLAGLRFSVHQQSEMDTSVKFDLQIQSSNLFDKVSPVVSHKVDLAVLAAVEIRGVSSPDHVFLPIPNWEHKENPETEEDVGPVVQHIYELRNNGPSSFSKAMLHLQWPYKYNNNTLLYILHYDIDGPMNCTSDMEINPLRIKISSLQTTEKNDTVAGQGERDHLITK
Sequence of αVβ3 Integrin (P06756 891-1048 partner limits assumed): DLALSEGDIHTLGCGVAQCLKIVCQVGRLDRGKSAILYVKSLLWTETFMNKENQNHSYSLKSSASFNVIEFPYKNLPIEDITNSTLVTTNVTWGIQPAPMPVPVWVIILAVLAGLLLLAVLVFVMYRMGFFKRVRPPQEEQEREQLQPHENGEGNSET
Sequence of αVβ3 Integrin (P05106 27-788): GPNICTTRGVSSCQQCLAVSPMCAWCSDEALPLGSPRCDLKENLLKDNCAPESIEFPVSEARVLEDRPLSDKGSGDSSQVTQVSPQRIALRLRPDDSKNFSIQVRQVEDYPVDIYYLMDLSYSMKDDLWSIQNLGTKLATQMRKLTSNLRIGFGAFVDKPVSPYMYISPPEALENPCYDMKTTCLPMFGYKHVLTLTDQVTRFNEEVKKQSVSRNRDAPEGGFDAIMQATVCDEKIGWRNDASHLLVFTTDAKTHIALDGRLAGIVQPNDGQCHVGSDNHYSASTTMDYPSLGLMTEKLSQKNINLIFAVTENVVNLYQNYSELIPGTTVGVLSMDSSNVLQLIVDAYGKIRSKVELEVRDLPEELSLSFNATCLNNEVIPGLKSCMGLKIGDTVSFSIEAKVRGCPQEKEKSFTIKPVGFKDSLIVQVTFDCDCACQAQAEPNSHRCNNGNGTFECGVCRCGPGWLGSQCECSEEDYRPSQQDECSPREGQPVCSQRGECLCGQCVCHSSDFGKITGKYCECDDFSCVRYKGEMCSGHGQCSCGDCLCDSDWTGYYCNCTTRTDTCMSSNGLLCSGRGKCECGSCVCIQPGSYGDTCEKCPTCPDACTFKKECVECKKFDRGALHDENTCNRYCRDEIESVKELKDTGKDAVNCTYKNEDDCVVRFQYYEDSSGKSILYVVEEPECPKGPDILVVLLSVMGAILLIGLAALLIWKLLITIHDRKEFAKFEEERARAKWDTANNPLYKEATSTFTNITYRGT

## CHNTPVYKLDISEATQV
IgG Anti-Ebola
  Kd: 1400 nM

## cyclo(RGD[dF]C) [Cyclic RGDfC]
αVβ3 Integrin
  Kd: ~10 nM

## HSCH2CH2-dinitrophenol
IgE Anti-DNP
  Kd: 65 nM

## CALDRWEKIRLR
IgG Anti-HIV
  Kd: 240 nM

B1: bis-biotinylated polymerase: exonuclease-deleted ϕ29 polymerase with biotinylated Avitags inserted between G111/K112 and E279/D280 (protein)
chain: MKHMPRKMYSCAFATTTKVEDCRVWAYGYMNIEDHSEYKIGNSLDEFMAWVLKVQADLYFHNLKFDGAFIINWLERNGFKWSADGLPNTYNTIISRMGQWYMIDICLGYKGGLNDIFEAQKIEWHEKRKIHTVIYDSLKKLPFPVKKIAKDFKLTVLKGDIDYHKERPVGYKITPEEYAYIKNDIQIIAEALLIQFKQGLDRMTAGSDSLKGFKDIITTKKFKKVFPTLSLGLDKEVRYAYRGGFTWLNDRFKEKEIGEGMVFDVNSLYPAQMYSRLLPYGEPIVFEGKYVWDEGLNDIFEAQKIEWHEDYPLHIQHIRCEFELKEGYIPTIQIKRSRFYKGNEYLKSSGGEIADLWLSNVDLELMKEHYDLYNVEYISGLKFKATTGLFKDFIDKWTYIKTTSEGAIKQLAKLMLNSLYGKFASNPDVTGKVPYLKENGALGFRLGEEETKDPVYTPMGVFITAWARYTTITAAQACYDRIIYCDTDSIHLTGTEIPDVIKDIVDPKKLGYWAHESTFKRAKYLRQKTYIQDIYMKEVDGKLVEGSPDDYTDIKFSVKCAGMTDKIKKEVTFENFKVGFSRKMKPKPVQVPGGVVLVDDTFTIK
DNA template
  polymerase activity: comparable to that of the native enzyme
